From patent publication US5668134A, “Method for preventing or reducing photosensitivity and/or phototoxicity reactions to medications” (priority 1994, dated 1997)
Where a name gives a salt, the structure may show the parent alone. Read-outs that look alike come from different tables or passages of the source.

Columns and labels:
[1] = Tissue or fluid to plasma ratios and blister fluid distribution after oral administration; type: in vivo, human; settings: for Kp: oral, read-out: Mean Tissue or Fluid to Plasma Ratio
Excerpt: The following are mean tissue or fluid to plasma ratios of lomefloxacin following oral administration.
Equilibrium between the serum and blister fluid is achieved approximately two hours postdose, with a partition coefficient of 1.0 (blister fluid:serum). The concentration vs. time profiles in blister fluid following single dose administration are similar to those obtained at steady-state during a once daily dosing regimen.

[2] = system: Enterobacter cloacae; assay: Activity in vitro and in clinical infections; type: cell-based
[3] = system: Klebsiella pneumoniae; assay: Activity in vitro and in clinical infections; type: cell-based
[4] = system: patients; assay: Clinical trials, adverse events; type: in vivo, human
Excerpt: Photosensitivity and/or phototoxicity reactions have been reported in clinical trials of lomefloxacin HCl to varying degrees. […] These photosensitivity and/or phototoxicity reactions have also occurred in subjects exposed to shaded or diffuse light, including exposure through glass.
In clinical trials, most of the adverse events reported were mild to moderate in severity and transient in nature. During these clinical investigations, 2869 patients received MAXAQUIN®. In 2.6% of the patients, lomefloxacin was discontinued because of adverse events, primarily involving the gastrointestinal system (0.7%), skin (1.0%), or central nervous system (0.5%). The adverse clinical events with the highest incidence (≥1%) in patients, regardless of relationship to drug, were nausea (3.7%), headache (3.2%), photosensitivity (2.4%), dizziness (2.3%), and diarrhea (1.4%).

[5] = Food effect on pharmacokinetics; type: in vivo, human
[6] = system: patients; assay: Example 3: multicenter comparative safety and efficacy study, photosensitivity; type: in vivo, human; settings: 400 mg x 7 days
Description: A double blind, randomized, parallel group, three-arm clinical study concerning the photosensitivity reactions caused by lomefloxacin HCl was the multicenter comparative safety and efficacy study which was conducted in Sweden. 400 mg of lomefloxacin HCl was given once a day (q.d.) for either three days or seven days. 703 patients were enrolled in this study, before newly-raised awareness of photosensitivity reactions associated with lomefloxacin HCl.
However, about one year into the study, on Feb. 2, 1989, a letter was sent out to each of the study investigators regarding the possible risks of lomefloxacin HCl photosensitivity reactions. This information was again communicated to the study investigators at an Investigator's Meeting which was held on Jun. 8, 1989. The above-describedwarnings to study investigators apparently may have not been shared with the patients taking part in the study because photosensitivity rates for this study were reported as for […] as 10% for lomefloxacin HCl 400 mg×7 days.

[7] = system: skin of healthy volunteers; set-up: species or system human; settings: in vivo
Description: This study describes a randomized, single site, double-blind, two treatment, two period, two sequence, cross-over clinical pharmacology study which was performed according to FDA regulations in 27 healthy normal volunteers with fair skin that could easily burn when exposed to sunlight, to assess the photosensitivity and/or phototoxicity potential of oral 400 mg lomefloxacin hydrochloride (MAXAQUIN®) administered once daily for 4 consecutive days either in the morning (morning dose group), as described hereinbelow, or in the early evening (evening dose group), as described hereinbelow. Irradiation and evaluation of irradiated sites began at 2 hours after the final morning dose of lomefloxacin HCl for the morning dosing group, and began 16 hours after the final evening dose of lomefloxacin HCl for the evening dosing group.
"Baseline MED" was defined as the lowest dose of UVA radiation alone, or UVA and UVB radiation, that produced a minimal perceptible erythema filling a 1 cm^2 patch of skin 24 hours post radiation.
"Delayed MED" was defined as the lowest dose of UVA radiation alone, or UVA and UVB radiation, that produced a minimal perceptible erythema filling a 1 cm^2 patch of skin, when testing the area 24, 48 and 72 hours post radiation.
"Immediate MED" was defined as the lowest dose producing minimal perceptible erythema filling a 1 cm^2 patch of skin when testing the area 0, 3, and 6 hours post radiation.
After all baseline procedures, including determination of baseline MEDUVA and MEDUVA+UVB values 24 hours post-radiation, were completed, all subjects started Study Day 1 of Treatment Period 1 with an evening dose of study medication, and completed this phase of the treatment regime with a morning dose of study medication on Study Day 5. Two hours after the final morning dose, and 16 hours after the last evening dose, a randomly selected site composed of six patches of skin, each with an area of one square centimeter, on the back or buttock of the subject was irradiated with incremental amounts of energy. Immediately following irradiation (0 hour), and at 3, 6, 24, 48 and 72 hours following irradiation, each skin patch area was evaluated to determine the MEDs, and assess the severity of skin reaction using a five-grade system, as described hereinbelow. The lowest of the MEDs determined at 0, 3 and 6 hours post-radiation were referred to as immediate MEDs, and the lowest of the MEDs determined at 24, 48 and 72 hours post-radiation were referred to as delayed MEDs.
The source of radiation employed was an Oriel (Santa Monica, Calif.) Xenon Arc 1000 watt solar simulator, with the following filters: WG320 filter (1 mm thick, emitting full spectrum UVA and UVB radiation), WG335 filter (3 mm thick, emitting almost exclusively UVA radiation) or UG11 filter (to filter infrared radiation).
For predrug exposure MED determination, 2 sets each with six 1 cm^2 patches on the back or buttocks were irradiated with increasing doses of UVA and UVB radiation, and UVA radiation alone, up to 7 days prior to beginning of drug treatment. With respect to UVA light source, irradiation began at 5 J/cm^2, and was increased by increments of 5 J/cm^2 using a different skin patch for each exposure. The maximum radiation dose was 30 J/cm^2. Subjects with MED greater than 30 J/cm^2 were excluded from the study. […] A different skin patch was used for each exposure.
Two hours after the administration of the last dose of Treatment Period 1 (a.m. dose), the two randomly selected sites on each subject's back or buttocks were exposed one to UVA and UVB radiation, and one to UVA radiation alone. In order to protect the subjects from excessive radiation, as well as assess the true Minimum Erythema Dose (MED), the posttreatment irradiation doses for each subject was adjusted in accordance with their pretreatment MEDs. The following table was used to determine each subject's minimum and maximum posttreatment radiation dose: […]

[8] = regardless of relationship to drug

CCn1cc(C(=O)O)c(=O)c2cc(F)c(N3CCNC(C)C3)c(F)c21 (racemic) [lomefloxacin HCl, monohydrochloride salt of (±)-1-ethyl-6,8-difluoro-1,4-dihydro-7-(3-methyl-1-piperazinyl)-4-oxo-3-quinolinecarboxylic acid]
Kp ([1]; Blister Fluid): 1 | Kp ([1]; Bronchial mucosa): 2.1 | Kp ([1]; Bronchial secretions): 0.6 | Kp ([1]; Prostatic tissue): 2 | Kp ([1]; Sputum): 1.3 | Kp ([1]; Urine): 140 | terminal half-life in blister fluid versus serum ([1]; inflammatory exudate fluid of blisters): same terminal half-life | time to equilibrium between serum and blister fluid ([1]; postdose): approximately two | activity against most strains [2]: active against most strains | activity against most strains [3]: active against most strains | discontinued because of adverse events ([4]; 2869 patients): 2.6% | discontinued because of adverse events, central nervous system ([4]; 2869 patients): 0.5% | discontinued because of adverse events, gastrointestinal system ([4]; 2869 patients): 0.7% | discontinued because of adverse events, skin ([4]; 2869 patients): 1.0% | incidence of photosensitivity ([4]; clinical trials): 2.4% | photosensitivity and/or phototoxic reactions ([4]; patients exposed to sunlight or artificial ultraviolet light): Moderate to severe photosensitivity and/or phototoxic reactions have occurred | incidence of diarrhea [4, 8]: 1.4% | incidence of dizziness [4, 8]: 2.3% | incidence of headache [4, 8]: 3.2% | incidence of nausea [4, 8]: 3.7% | decrease of Cmax with food [5]: 18% | decrease of extent of absorption (AUC) with food [5]: 12% | delay of Tmax with food [5]: 41% | Tmax ([5]; human, in vivo, with food): 2 h | photosensitivity rate [6]: 10% | MED, 0 H, mean [7]: 0.094 J/cm^2 | amount of UVA+UVB radiation to give MED versus UVA alone [7]: over 100 times less | change of immediate MEDUVA+UVB from baseline [7]: not statistically significant | change of immediate and delayed MEDUVA+UVB from baseline [7]: neither the changes between baseline and posttreatment immediate MEDUVA+UVB, nor between baseline and posttreatment delayed MEDUVA+UVB, were statistically significant | change of immediate and delayed MEDUVA+UVB, a.m. versus p.m. [7]: statistically significant difference | photosensitivity with UVA plus UVB radiation [7]: no increase in photosensitivity
